Assay results reported in patent publication US20260055118A1, “VISIBLE LIGHT SENSITIVE PHOTOREMOVABLE PROTECTING GROUPS, PREPARATION PROCESS THEREOF, PHOTOACTIVATABLE CONJUGATES COMPRISING THEM AND USES THEREOF” (HUN-REN TERMÉSZETTUDOMÁNYI KUTATÓKÖZPONT, priority 2022, published 2026).

Columns and labels:
[1] = system: SK-OV-3 cells; assay: Live cell confocal fluorescence imaging (cell permeability, colocalization); type: cell-based, human; details: live SK-OV-3 cells, confocal microscopy
Experimental: SKOV3 (ATCC HTB-77) cells were maintained in McCoy's 5A (Modified) Medium, HEPES (Gibco 22330021) media supplemented with 10% FBS (Gibco 10500-064), 1% penicillin-streptomycin (Gibco 15140-122). The cells were cultured at 37° C. in a 5% CO2 atmosphere and passaged—using trypsin (Gibco 25300-054)—every 3-4 days up to 20 passages.
SKOV3 ([…]) cells were transferred into μ-Slide 8 well plates (Ibidi 80827) and were incubated for 40 h at 37° C. in a 5% CO2 atmosphere. After 30 min treatment with compounds X1′-SN38 and X2′—SN38 in the concentration of 1 μM and in some cases in combination with 1 nM MitoTracker Deep Red FM (Invitrogen M22426) or 1 nM LysoTracker Deep red (Invitrogen L12492) or 50 nM MitoTracker Red FM (Invitrogen M22425) or 50 nM LysoTracker red DND-99 (Invitrogen L7528). The samples were subjected to microscopy analyses. […]
Due to their high fluorescence, the cell permeability of compounds X1′-SN38 and X2′-SN38 were tested in live SK—OV-3 (human ovarian carcinoma) cells using confocal microscopy. […] The decrease of fluorescence (related to the photolysis reaction) was only observed in the irradiated area. Overall, these experiments serve as evidence for the cell permeability, biocompatibility and excellent ability of this invention to determine the localization of the photoactivatable conjugates via fluorescence microscopy.

[2] = Uncaging quantum yield determination relative to BODIPY reference; type: physicochemical; details: calculated from the disappearance of the target conjugate; green light irradiation
Experimental: The relative photochemical quantum yields of the uncaging reactions together with the degradation quantum yields were determined from the results of the quantitative HPLC-UV experiments. In all cases, green light irradiation was used since all target conjugates absorbed in this range as well as the reference BODIPY. The photochemical quantum yields were determined using the following equation:
[formula] • where • Φu is the photochemical quantum yield of the sample • Φu,ref is the photochemical quantum yield of the reference • k is the obtained reaction rate constant of the photoreaction of the sample • kref is the obtained reaction rate constant of the photoreaction of the reference • c is the concentration of the sample • cref is the concentration of the reference • V is the volume of the sample • Vref is the volume of the reference • a is the absorption correction factor of the sample • aref is the absorption correction factor of the reference
The absorption correction factors (a) were determined from the molar absorption coefficients and the green LED emission data obtained by the fluorimeter. […] In other words, the transmittance at each wavelength together with the emission data of the light source can be used to calculate the percentage of absorbed photons according to the following equation:
[formula] • where • T(λ) is the transmittance at each wavelength (determined from the molar absorption coefficients) • F(λ) is the LED emission at each wavelength • λmin, λmax is the LED emission range.
The rate constants of the photoreactions were determined by considering the reactions monoexponential with an initial linear phase (up to 10-20% degradation). First, the concentration vs. HPLC-UV peak were determined for each cargo moieties. […] The rate constants were determined for both the reference (with known Φu) and the sample. For reference, a commonly known BODIPY derivative was used with a similar phenylacetic acid-derived cargo unit (substrate 7 from REF^40), Φu=0.15%:
The calculated photochemical quantum yields together with uncaging cross-sections or quantum efficiencies (product of the molar absorption coefficient at a given wavelength, shown in parentheses and the photochemical quantum yield) are shown in Table 2. In the table, Φu is the photochemical quantum yield of the release; Φdeg is the photochemical quantum yield of degradation; ε×Φu is the uncaging cross-section or quantum efficiency of the release at a given wavelength in parentheses.

## CCc1c2c(nc3ccc(OC(=O)N(C)CCN(C)C(=O)OC(C)c4c5ccc(=[N+]6CCCC6)cc-5oc5cc(N6CCCC6)ccc45)cc13)-c1cc3c(c(=O)n1C2)COC(=O)C3(O)CC.[I-] (mixture of isomers) [X1′-SN38]
[1]
  cell permeability: cell permeable
[2]
  Φdeg, degradation quantum yield: 0.15%
